In patent US4217274A, “Methoxyethoxymethyl esters of penicillins” (Bristol-Myers Company, priority 1978, dated 1980):
In brackets after ≈: the same amount, converted by molar mass. Read-outs that look alike come from different tables or passages of the source.

Key:
Str. pyogenes = assay: MIC, antibiotic dilution technique (agar); assay type: cell-based, S. pyogenes; conditions: Streptococcus pyogenes
From the text: (§1) Bacteria. The organisms, preponderantly of recent clinical origin, were obtained from numerous sources of broad geographical distribution. Obligate anaerobes were maintained in Egg Meat Medium (Difco); Mycobacterium was stored on Lowenstein Medium (Jensen Modification; Difco). The techniques of storing all other organisms have been described previously [Leitner et al., BL-S640, A Cephalosporin with a Broad Spectrum of Antibacterial Activity: Properties in vitro, Antimicrob. Agents Chemother., 7, 298-305 (1975)].
(§2) Antibiotic spectrum. The growth-inhibitory activity of the compounds was determined by the antibiotic dilution technique. Procedures were as follows:
(§3) Aerobic organisms (excluding Mycobacterium). Except for Haemophilus and Neisseria, the assay was performed in Mueller-Hinton Medium (Difco). For fastidious organisms, i.e., Streptococcus, Listeria, Pasteurella, Bordetella and Vibrio, the medium was supplemented with 4% defibrinated sheep blood. The antibiotic susceptibility of Haemophilus and Neisseria was determined in GC Medium Base (BBL) supplemented with 1% Hemoglobin (BBL) and 1% Isovitalex (BBL).
(§4) Overnight broth cultures of an exponentially growing culture (Neisseria) served as the source of inoculum. A volume of approximately 0.003 ml. of the undiluted or diluted culture was applied to the surface of the antibiotic-containing agar plates with the inoculator of Steers et al., An Inocula Replicating Apparatus for Routine Testing of Bacterial Susceptibility to Antibiotics, Antibiot. Chemother., 9, 307-311, (1959). Cultures of Neisseria, Streptococcus pneumoniae, S. viridans and S. pyogenes were used without dilution; those of all other organisms were diluted 100-fold. The inoculum contained about 10^3 viable cells for Neisseria, 10^5 for S. pneumoniae and S. pyogenes, 10^6 for S. viridans and 10^4 for all other species.

E. Coli [1] = assay: MIC, antibiotic dilution technique (agar); assay type: cell-based; conditions: Escherichia coli
From the text: as §1, §2, §3, §4

Ent. cloacae = assay: MIC, antibiotic dilution technique (agar); assay type: cell-based; conditions: Enterobacter cloacae
From the text: as §1, §2, §3, §4

K. pneumoniae [2] = assay: MIC, antibiotic dilution technique (agar); assay type: cell-based; conditions: Klebsiella pneumoniae
From the text: as §1, §2, §3, §4

Pr. mirabilis = assay: MIC, antibiotic dilution technique (agar); assay type: cell-based; conditions: Proteus mirabilis
From the text: as §1, §2, §3, §4

Pr. morganii = assay: MIC, antibiotic dilution technique (agar); assay type: cell-based; conditions: Morganella morganii
From the text: as §1, §2, §3, §4

Pr. rettgeri = assay: MIC, antibiotic dilution technique (agar); assay type: cell-based; conditions: Providencia rettgeri
From the text: as §1, §2, §3, §4

Pr. vulgaris = assay: MIC, antibiotic dilution technique (agar); assay type: cell-based; conditions: Proteus vulgaris
From the text: as §1, §2, §3, §4

Ps. aeruginosa = assay: MIC, antibiotic dilution technique (agar); assay type: cell-based; conditions: Pseudomonas aeruginosa
From the text: as §1, §2, §3, §4

S. aureus Meth-Res. = assay: MIC, antibiotic dilution technique (agar); assay type: cell-based; conditions: Staphylococcus aureus
From the text: as §1, §2, §3, §4

S. aureus Pen-Res. = assay: MIC, antibiotic dilution technique (agar); assay type: cell-based; conditions: Staphylococcus aureus
From the text: as §1, §2, §3, §4

S. aureus = assay: MIC, antibiotic dilution technique (agar); assay type: cell-based; conditions: Staphylococcus aureus
From the text: as §1, §2, §3, §4

Ser. marcescens = assay: MIC, antibiotic dilution technique (agar); assay type: cell-based; conditions: Serratia marcescens
From the text: as §1, §2, §3, §4

Str. faecalis = assay: MIC, antibiotic dilution technique (agar); assay type: cell-based; conditions: Enterococcus faecalis
From the text: as §1, §2, §3, §4

Str. pneumoniae = assay: MIC, antibiotic dilution technique (agar); assay type: cell-based; conditions: Streptococcus pneumoniae
From the text: as §1, §2, §3, §4

[3] = Mouse blood levels after oral administration (disc diffusion bioassay, Bacillus subtilis); conditions: in vivo, 100 mg/kg
E. Coli [4] = assay: MIC, antibiotic dilution technique (agar), Table 4; assay type: cell-based; conditions: Escherichia coli
From the text: as §1, §2, §3, §4

E. cloacae = assay: MIC, antibiotic dilution technique (agar), Table 4; assay type: cell-based; conditions: Enterobacter cloacae; Table 4, 2 strains, geometric mean where applicable
From the text: as §1, §2, §3, §4

K. pneumoniae [5] = assay: MIC, antibiotic dilution technique (agar), Table 4; assay type: cell-based; conditions: Klebsiella pneumoniae
From the text: as §1, §2, §3, §4

P. mirabilis = assay: MIC, antibiotic dilution technique (agar), Table 4; assay type: cell-based; conditions: Proteus mirabilis
From the text: as §1, §2, §3, §4

P. rettgeri = assay: MIC, antibiotic dilution technique (agar), Table 4; assay type: cell-based; conditions: Providencia rettgeri
From the text: as §1, §2, §3, §4

[6] = test system: S. aureus (lacking penase); assay: MIC, antibiotic dilution technique (agar), Table 4; assay type: cell-based; conditions: Staphylococcus aureus; Table 4, 6 strains, geometric mean where applicable
From the text: as §1, §2, §3, §4

S. faecalis = assay: MIC, antibiotic dilution technique (agar), Table 4; assay type: cell-based; conditions: Enterococcus faecalis; Table 4, 6 strains, geometric mean where applicable
From the text: as §1, §2, §3, §4

S. marcescens = assay: MIC, antibiotic dilution technique (agar), Table 4; assay type: cell-based; conditions: Serratia marcescens
From the text: as §1, §2, §3, §4

S. pneumoniae = assay: MIC, antibiotic dilution technique (agar), Table 4; assay type: cell-based; conditions: Streptococcus pneumoniae; Table 4, 7 strains, geometric mean where applicable
From the text: as §1, §2, §3, §4

S. pyogenes = assay: MIC, antibiotic dilution technique (agar), Table 4; assay type: cell-based; conditions: Streptococcus pyogenes; Table 4, 6 strains, geometric mean where applicable
From the text: as §1, §2, §3, §4

S. viridans = assay: MIC, antibiotic dilution technique (agar), Table 4; assay type: cell-based; conditions: Streptococcus viridans
From the text: as §1, §2, §3, §4

[7] = test system: Streptococcus sp. (β-hemolytic); assay: MIC, antibiotic dilution technique (agar), Table 4; assay type: cell-based; conditions: Table 4, 6 strains, geometric mean where applicable
From the text: as §1, §2, §3, §4

p. vulgaris = assay: MIC, antibiotic dilution technique (agar), Table 4; assay type: cell-based; conditions: Proteus vulgaris; Table 4, 2 strains, geometric mean where applicable
From the text: as §1, §2, §3, §4

SMILES: CC1(C)S[C@@H]2[C@H](NC(=O)[C@H](N)c3ccc(O)cc3)C(=O)N2[C@H]1C(=O)O [Amoxicillin, amoxicillin]
- MIC (Str. pyogenes; Table 2, Str. pyogenes): 0.004 µg/mL (≈ 0.0109 µM)
- MIC (E. Coli [1]; Table 2, E. coli, first line): 0.5 µg/mL (≈ 1.37 µM)
- MIC (E. Coli [1]; Table 2, E. coli, second line): > 125 µg/mL
- MIC (Ent. cloacae): 125 µg/mL (≈ 342 µM)
- MIC (Ent. cloacae; Table 2, Ent. cloacae, first line, read-out: MIC): 63 µg/mL (≈ 172 µM)
- MIC (K. pneumoniae [2]; Table 2, K. pneumoniae, first line): 125 µg/mL (≈ 342 µM)
- MIC (K. pneumoniae [2]; Table 2, K. pneumoniae, second line): > 125 µg/mL
- MIC (Pr. mirabilis; Table 2, Pr. mirabilis): 0.06 µg/mL (≈ 0.164 µM)
- MIC (Pr. morganii): 125 µg/mL (≈ 342 µM)
- MIC (Pr. rettgeri; Table 2, Pr. rettgeri): 16 µg/mL (≈ 43.8 µM)
- MIC (Pr. vulgaris; Table 2, Pr. vulgaris): 0.06 µg/mL (≈ 0.164 µM)
- MIC (Ps. aeruginosa; Table 2, Ps. aeruginosa, first line): 125 µg/mL (≈ 342 µM)
- MIC (Ps. aeruginosa; Table 2, Ps. aeruginosa, second line): > 125 µg/mL
- MIC (S. aureus Meth-Res.; Table 2, S. aureus Meth-Res.): 32 µg/mL (≈ 87.6 µM)
- MIC (S. aureus Pen-Res.): > 125 µg/mL
- MIC (S. aureus; Table 2, S. aureus): 0.03 µg/mL (≈ 0.0821 µM)
- MIC (S. aureus; Table 2, S. aureus + 50% serum): 0.06 µg/mL
- MIC (Ser. marcescens; Table 2, Ser. marcescens): 32 µg/mL (≈ 87.6 µM)
- MIC (Str. faecalis; Table 2, Str. faecalis): 0.06 µg/mL (≈ 0.164 µM)
- MIC (Str. pneumoniae; Table 2, Str. pneumoniae): 0.004 µg/mL (≈ 0.0109 µM)
- concentration at 0.25 h [3]: 9500 ng/mL
- concentration at 0.5 h [3]: 16900 ng/mL
- concentration at 1 h [3]: 14200 ng/mL
- concentration at 1.5 h [3]: 8700 ng/mL
- concentration at 2 h [3]: 6300 ng/mL
- concentration at 3 h [3]: 3100 ng/mL

SMILES: CC1(C)S[C@@H]2[C@H](NC(=O)[C@H](N)c3ccccc3)C(=O)N2[C@H]1C(=O)O [Ampicillin, ampicillin]
- MIC (Str. pyogenes; Table 1, Str. pyogenes): 0.008 µg/mL (≈ 0.0229 µM)
- MIC (E. Coli [1]; Table 1, E. Coli, first line): 1 µg/mL (≈ 2.86 µM)
- MIC (E. Coli [1]; Table 1, E. Coli, second line): 63 µg/mL (≈ 180 µM)
- MIC (Ent. cloacae; Table 1, Ent. cloacae, first line, read-out: MIC): 32 µg/mL (≈ 91.6 µM)
- MIC (Ent. cloacae; Table 1, Ent. cloacae, second line, read-out: MIC): 32 µg/mL (≈ 91.6 µM)
- MIC (K. pneumoniae [2]; Table 1, K. pneumoniae, first line, read-out: MIC): 63 µg/mL (≈ 180 µM)
- MIC (K. pneumoniae [2]; Table 1, K. pneumoniae, second line, read-out: MIC): 32 µg/mL (≈ 91.6 µM)
- MIC (Pr. mirabilis; Table 1, Pr. mirabilis): 0.06 µg/mL (≈ 0.172 µM)
- MIC (Pr. morganii): 125 µg/mL (≈ 358 µM)
- MIC (Pr. rettgeri; Table 1, Pr. rettgeri): 8 µg/mL (≈ 22.9 µM)
- MIC (Pr. vulgaris; Table 1, Pr. vulgaris): 0.13 µg/mL (≈ 0.372 µM)
- MIC (Ps. aeruginosa; Table 1, Ps. aeruginosa, first line, read-out: MIC): 63 µg/mL (≈ 180 µM)
- MIC (Ps. aeruginosa; Table 1, Ps. aeruginosa, second line): > 125 µg/mL
- MIC (S. aureus Meth-Res.; Table 1, S. aureus Meth-Res.): 16 µg/mL (≈ 45.8 µM)
- MIC (S. aureus Pen-Res.): 125 µg/mL (≈ 358 µM)
- MIC (S. aureus; Table 1, S. aureus): 0.03 µg/mL (≈ 0.0859 µM)
- MIC (S. aureus; Table 1, S. aureus + 50% serum): 0.06 µg/mL
- MIC (Ser. marcescens; Table 1, Ser. marcescens): 16 µg/mL (≈ 45.8 µM)
- MIC (Str. faecalis; Table 1, Str. faecalis): 0.13 µg/mL (≈ 0.372 µM)
- MIC (Str. pneumoniae; Table 1, Str. pneumoniae): 0.004 µg/mL (≈ 0.0114 µM)
- MIC (E. Coli [4]; 1 strain (first line)): 0.5 µg/mL (≈ 1.43 µM)
- MIC (E. Coli [4]; 1 strain (fourth line)): > 125 µg/mL
- MIC (E. Coli [4]; 1 strain (third line)): 63 µg/mL (≈ 180 µM)
- MIC (E. Coli [4]; 3 strains (second line), geometric mean where applicable): 2.5 µg/mL (≈ 7.15 µM)
- MIC (E. cloacae): 63 µg/mL (≈ 180 µM)
- MIC (K. pneumoniae [5]): > 125 µg/mL
- MIC (K. pneumoniae [5]; Table 4, K. pneumoniae, 1 strain (first line), read-out: MIC): 32 µg/mL (≈ 91.6 µM)
- MIC (P. mirabilis): > 125 µg/mL
- MIC (P. mirabilis; Table 4, P. mirabilis, 4 strains, geometric mean where applicable, read-out: MIC): 2 µg/mL (≈ 5.72 µM)
- MIC (P. rettgeri; Table 4, P. retgeri, 2 strains (third line), geometric mean where applicable): 32 µg/mL (≈ 91.6 µM)
- MIC (P. rettgeri; Table 4, P. rettgeri, 1 strain (first line)): 0.13 µg/mL (≈ 0.372 µM)
- MIC (P. rettgeri; Table 4, P. rettgeri, 1 strain (second line)): 4 µg/mL (≈ 11.4 µM)
- MIC [6]: 0.07 µg/mL (≈ 0.2 µM)
- MIC (S. faecalis): 1 µg/mL (≈ 2.86 µM)
- MIC (S. marcescens; 1 strain (first line), read-out: MIC): 63 µg/mL (≈ 180 µM)
- MIC (S. marcescens; 1 strain (second line)): > 125 µg/mL
- MIC (S. pneumoniae): 0.02 µg/mL (≈ 0.0572 µM)
- MIC (S. pyogenes): 0.016 µg/mL (≈ 0.0458 µM)
- MIC (S. viridans; Table 4, S. viridans, 1 strain (second line)): 0.063 µg/mL (≈ 0.18 µM)
- MIC (S. viridans; Table 4, S. viridans, 3 strains, geometric mean where applicable): 0.05 µg/mL (≈ 0.143 µM)
- MIC (S. viridans; Table 4, s. viridans, 1 strain (third line)): 0.35 µg/mL (≈ 1 µM)
- MIC [7]: 0.063 µg/mL (≈ 0.18 µM)
- MIC (p. vulgaris): 0.35 µg/mL (≈ 1 µM)
- concentration at 0.25 h [3]: 3500 ng/mL
- concentration at 0.5 h [3]: 6600 ng/mL
- concentration at 1 h [3]: 6800 ng/mL
- concentration at 1.5 h [3]: 4300 ng/mL
- concentration at 2 h [3]: 2500 ng/mL
- concentration at 3 h [3]: 1100 ng/mL
